One series has as its system Mus musculus. The series is described as follows: Antitumor activity administered ip, po was determined in murine model; Active. The format is functional, organism-based.
A further series has as its system Homo sapiens. Put plainly: Antitumor activity administered ip was determined in human model; Active. The series is classed as functional, organism-based.
In series [1] the test system is P388. The series is described as follows: Inhibitory activity administered was determined against ic P388 leukemia cells; Active. The format is functional. As to conditions: Mus musculus.
Another series has as its system B16. The series is described as follows: Inhibitory activity administered was determined against sc B16 melanoma cells; Active. As to conditions: Mus musculus. The format is functional, organism-based.
Series [2] can be described thus: Plasma half life in monkey. The format is ADME. As to conditions: cercopithecidae.
A short description of series [3]: Plasma half life in dog. The series is classed as ADME, organism-based, Canis lupus familiaris.
Series [4] can be described thus: Plasma half life in human. The format is ADME, cell-free.
A further series concerns L1210. The series is described as follows: Inhibitory activity administered was determined against ic L1210 leukemia cells; Active. As to conditions: Mus musculus. The series is classed as functional.
For series [5], the system named is P388. Put plainly: Inhibitory activity administered iv was determined against implanted P388 leukemia cells; Active. The series is classed as functional, organism-based. As to conditions: Mus musculus.
Series [6] is described as follows: Plasma half life in mouse. The format is ADME, organism-based.

SMILES strings stand for the structures. Active and inactive are the calls of the source.

As to `COc1cc(C2c3cc4c(cc3[C@@H](O[C@@H]3O[C@@H]5CO[C@@H](C)O[C@H]5[C@H](O)[C@H]3O)[C@H]3COC(=O)[C@H]23)OCO4)cc(OC)c1O` (single isomer, unassigned), the result with Mus musculus and in the series on Homo sapiens was Active.
For the molecule `COc1cc([C@H]2c3cc4c(cc3[C@@H](O[C@@H]3O[C@H]5CO[C@@H](C)O[C@H]5[C@H](O)[C@@H]3O)[C@H]3COC(=O)[C@H]23)OCO4)cc(OC)c1OP(=O)([O-])[O-].[Na+].[Na+]`, the outcome in the series with P388 [1], in the series on B16, in the series on L1210, in the series with P388 [5] and in the series on Homo sapiens was Active. The half-life (usually the time needed for the level to fall by half in the phase considered) in [2] came out at 39 min; in series [3], 124 min; in [4], 45 min; in series [6], 39 min.

The record behind these values is ChEMBL document CHEMBL1128008, “Synthesis of etoposide phosphate, BMY-40481: A water-soluble clinically active prodrug of etoposide” (Bioorg Med Chem Lett, 1994).
